From a melting point compilation (Tetko et al.; mined from patent text by program, amines drawn as free bases though some values may be those of a salt)

SMILES | melting point
CCOc1ccc(CCNC(=O)C(N)=O)cc1OCC | 168 to 169 °C
CC(O)c1cccc([N+](=O)[O-])c1Cl (centres undefined) | 62 to 64 °C
O=C(c1ccc([N+](=O)[O-])cc1)N1CCc2cn[nH]c2-c2ncccc21 | 255 to 256 °C
CC(=O)OC(C)OC(=O)[C@H](Cc1ccc(-c2c(C)n(C)c(=O)n(C)c2=O)cc1)NC(=O)c1c(Cl)cccc1Cl (some centres undefined) | 168 to 170 °C
O=C1CCC(c2ccc(F)c(F)c2)CC1 | 61 °C
COc1ccnc(CCc2ccnc(N)c2N)c1 | 89 to 91 °C
COc1ccc(S(=O)(=O)N2Cc3ccccc3N(C(=O)c3cccc(C(F)(F)F)c3)CC2C(=O)O)cc1 (centres undefined) | 105 to 110 °C
CCOc1nc(C2CC2)nc(OC)c1C=O | 93 to 94 °C
CCN(CC)CC(=O)Nc1cccc2c1C(=O)c1c(NC(=O)CN(CC)CC)cccc1C2=O | 228 to 229 °C
COc1ccc2c(c1)C(C)(N)C(=O)N2c1ccc(F)cc1 (centres undefined) | 163 to 164 °C
Cc1oc(-c2cccc([N+](=O)[O-])c2)nc1CCl | 111 to 113 °C
CCOC(=O)C(O)=CC=C(SC)C(=O)c1ccc(O)c(O)c1 | 156 °C
NC(=O)CNc1ncccc1N | 153 to 155 °C
Cc1cc(-c2cnn3c(C(F)(F)F)cc(-c4ccc(Cl)c(Cl)c4)nc23)ccn1 | 275 °C
CCOC(=O)Cn1c(-c2ccc([N+](=O)[O-])cc2)nc2cccnc21 | 192 to 194 °C
Cc1cc(NC(=O)OC(C)(C)C)c(N)cc1C#Cc1ccccc1 | 172 to 173 °C
CC(c1ccc(-c2ccccc2F)cc1)S(=O)CC(=O)N(C)C (centres undefined) | 131 to 133 °C
CN1C(=O)CC[C@]2(C)c3ccc(-c4ccc(Cl)c(Cl)c4)cc3CC[C@@H]12 | 129 to 135 °C
COc1ccc(C2CCSCC2)cc1OC1CCCC1 | 83 to 85 °C
COC(=O)C(NC(=O)C(NC(C)=O)(OC)C(Br)Br)=C(C)C (centres undefined) | 150 to 151 °C
c1ccc(CNc2cc(N3CCCC3)nc(N3CCCC3)n2)cc1 | 70 to 72 °C
CCc1c(N)c(C(N)=O)nn1Cc1cccnn1 | 177 to 185 °C
COc1cc2nc(CSc3ncnc4[nH]cnc34)n(-c3ccccc3Cl)c(=O)c2cc1OC | 160 to 180 °C
CCOC(=O)C1=C(C)NC(C#N)=C(C(=O)OCC)C1c1ccccc1Cl (centres undefined) | 136 to 137 °C
CC(C)=CCCn1ccnc1[N+](=O)[O-] | 49 to 51 °C

SMILES | melting point
CC1(C)CC2(CC(C)(C)c3ccc(Oc4cccc(N)c4)cc32)c2cc(Oc3cccc(N)c3)ccc21 | 206 °C
CCN(CC)c1nc(N)c2ccccc2n1 | 125 to 128 °C
COC(=O)[C@@H]1C[C@H](NC(C)=O)C(=O)[C@H]2[C@@]1(C)CC[C@H]1C(=O)O[C@H](c3ccoc3)C[C@]21C | 222 to 224 °C
Cn1c([N+](=O)[O-])cnc1COc1ccc(C(F)(F)F)cc1[N+](=O)[O-] | 126 °C
Cc1c(-c2ccnc3cc(Cl)ccc23)c2cc(NS(C)(=O)=O)ccc2n1CC(=O)O | 195 to 198 °C
CS(=O)(=O)Nc1cccc(Nc2nc(OC3CCCC3)c3nc[nH]c3n2)c1 | 137 to 140 °C
O=C(Nc1ccc(S(=O)(=O)Oc2ccccc2)cc1[N+](=O)[O-])NS(=O)(=O)Cl | 190 °C
COc1ccc(N2CCN(CCC3CN(C)C(=O)O3)CC2)cc1OC (centres undefined) | 90 to 92 °C
CC1Sc2c(C(=O)O)c(=O)c3cc(Cl)c(N4CCN(C)CC4)cc3n21 (centres undefined) | 250 to 255 °C
COc1ccc2cnc(Nc3ccc(N4CCCCC4)c(F)c3)nc2c1C1CCCC1 | 200 to 201 °C
CN(C(CCn1c(=O)cc(Cl)[nH]c1=O)C(=O)NO)S(=O)(=O)c1ccc(Oc2cccc(Cl)c2)cc1 (centres undefined) | 168 to 170 °C
Cc1ccc([N+](=O)[O-])cc1NC(=N)N | 135 to 142 °C
COC(=O)COc1ccc(Nc2cc(Nc3ccc(F)c(Cl)c3)ncn2)cc1 | 191 to 193 °C
Cc1ccc2cccc(OCc3c(Cl)ccc(S(=O)(=O)N(CCCCN)C(C)(C)C)c3Cl)c2n1 | 142 to 144 °C
FC(F)(F)c1ccc(-c2ccc(CCl)cn2)cc1 | 73 °C
CCn1c2ccccc2c2oc(C(=O)Cl)cc21 | 127 to 129 °C
Oc1cccc2c1OCO2 | 62 to 63 °C
CC(C)(C)OC(=O)NC(C)(CO)C(=O)OC(C)(C)C (centres undefined) | 44 to 45 °C
Cc1ccc(C(=O)OC(C)(C)C)cc1C=O | 53 to 55 °C
CC(C)(C)CC(=Cc1ccc(Cl)cc1)Cn1cncn1 | 81 to 84 °C
Cc1nc2c(-c3cccc(N4CCN(CCO)CC4)c3)cnn2c(N)c1-c1ccc(F)cc1 | 209 to 212 °C
COc1ccc(CN(C(=O)Nc2ccc(C(=O)O)cc2)c2ccc3c(c2)C(C)(C)CCC3(C)C)cc1 | 117 to 121 °C
CCCCCS(=O)(=O)NC(=O)CC(C)c1ccc(OCCOC)cc1Oc1ncc(C(F)(F)F)cc1Cl (centres undefined) | 137 °C
Cn1cc(C2=C(c3cn(C4CCN(CC(F)(F)C(F)(F)C(F)(F)F)CC4)c4ccccc34)C(=O)NC2=O)c2ccccc21 | 231 to 234 °C
